From patent US5854204A, “Aβ peptides that modulate β-amyloid aggregation” (priority 1996, dated 1998)
Numbered stars: 1 amine (or outer) side, 2 acyl side, 3 side chain; on linkers, the order of the positions; unused ones are H or OH. Square brackets hold non-standard residues; d marks the D form. Peptide text beside a SMILES is read from it. * marks the point of attachment. Cholyl = C[C@H](CCC(=O)*)[C@H]1CC[C@H]2[C@@H]3[C@H](O)C[C@@H]4C[C@H](O)CC[C@]4(C)[C@H]3C[C@H](O)[C@]12C; X2 = O=C(C1(O)C[C@H](O)[C@@H](N[*:1])[C@H]([C@H](O)[C@H](O)CO)O1)[*:2]; βAla = NCCC(=O)O

Columns and labels:
Aβ1-40 [1] = biological target: T1, Aβ1-40 (Homo sapiens, UniProt P05067);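 further: Aβ nucleation assay tracking fiber polymerization from monomer by turbidity (light scattering), shaken continuously in 96-well plates, read every 15 min over 5 h, compared with compound-free control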
T1 sequence (P05067 672-711): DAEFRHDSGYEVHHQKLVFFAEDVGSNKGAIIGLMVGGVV
Description: (§1) The nucleation assay is employed to determine the ability of test compounds to alter (e.g. inhibit) the early events in formation of β-AP fibers from monomeric β-AP. […] The time delay before polymerization of β-AP monomer can be quantified as well as the extent of formation of insoluble fiber by light scattering (turbidity). Polymerization reaches equilibrium when the maximum turbidity reaches a plateau. […] The threshold of sensitivity for the measurement of turbidity is in the range of 15-20 μM β-AP. […] This assay can be performed using stirring or shaking to accelerate polymerization, thereby increasing the speed of the assay. Moreover the assay can be adapted to a 96-well plate format to screen multiple compounds.
(§2) HFIP-solubilized peptide is sonicated in a waterbath sonicator for 5 min at highest setting, then evaporated to dryness under a stream of argon. […] Test compounds are dissolved in DMSO at a 100× concentration. […] Ten microliters of the mixture is then added to the bottom of a well of a Corning Costar ultra low binding 96-well plate (Corning Costar, Cambridge Mass.; cat. No. 2500). […] The plate is then returned to the shaker and shaken continuously for 5 hours. Turbidity readings are taken at 15 minute intervals.
(§3) Accordingly a fold increase in lag time of 1.0 indicates no change in lag time, whereas numbers >1.0 indicate an increase in lag time. The "% inhibition of plateau", which is a measure of the ability of the compound to decrease the total amount of aggregation, refers to the reduction of the final turbidity in the presence of the test compound expressed as a percent of the control without the test compound.

Aβ1-40 [2] = biological target: T1, Aβ1-40; experiment: biochemical; settings: read-out: % Inucl'n (percent reduction in maximum turbidity)
Description: as §1, §2, §3

Aβ1-40 [3] = biological target: T1, Aβ1-40; experiment: Seeded extension assay (thioflavin T fluorescence); format: biochemical; set-up: Natural β-AP (β-AP1-40) was obtained commercially from Bachem (Torrance, Calif.); purchased Bachem (Torrance, Calif.); settings: Table V; 25 mole % inhibitor
Procedure: The seeded extension assay can be employed to measure the rate of Aβ fiber formed in a solution of Aβ monomer following addition of polymeric Aβ fiber "seed". The ability of test compounds to prevent further deposition of monomeric Aβ to previously deposited amyloid is determined using a direct indicator of β-sheet formation using fluorescence. In contrast with the nucleation assay, the addition of seed provides immediate nucleation and continued growth of preformed fibrils without the need for continuous mixing, and thus results in the absence of a lag time before polymerization starts. Since this assay uses static polymerization conditions, the activity of positive compounds in the nucleation assay can be confirmed in this second assay under different conditions and with an additional probe of amyloid structure.
Samples of the solution are then diluted in thioflavin T (Th-T). The polymer-specific association of Th-T with Aβ produces a fluorescent complex that allows the measurement of the extent of fibril formation (Levine, H. (1993) Protein Science 2:404-410). In particular, association of Th-T with aggregated β-AP, but not monomeric or loosely associated β-AP, gives rise to a new excitation (ex) maximum at 450 nm and an enhanced emission (em) at 482 nm, compared to the 385 nm (ex) and 445 nm (em) for the free dye. Small aliquots of the polymerization mixture contain sufficient fibril to be mixed with Th-T to allow the monitoring of the reaction mixture by repeated sampling. A linear growth curve is observed in the presence of excess monomer. The formation of thioflavin T responsive β-sheet fibrils parallels the increase in turbidity observed using the nucleation assay.
To prepare the stock seed, 1 ml of the Aβ monomer preparation, is incubated for approximately 8 days at 37° C. and sheared sequentially through an 18, 23, 26 and 30 gauge needle 25, 25, 50, and 100 times respectively. 2 μl samples of the sheared material is taken for fluorescence measurements after every 50 passes through the 30 gauge needle until the fluorescence units (FU) plateau (approx. 100-150×). Test compounds are prepared by dissolving an appropriate amount of test compound in 1× PBS to a final concentration of 1 mM (10× stock). If insoluble, the compound is dissolved in 1/10 volume of DMSO and diluted in 1× PBS to 1 mM. A further 1/10 dilution is also prepared to test each candidate at both 100 μM and 10 μM.
To perform the seeded extension assay, each sample is set up with 50 μl of 200 μM monomer, 125 FU sheared seed (a variable quantity dependent on the batch of seed, routinely 3-6 μl) and 10 μl of 10× modulator solution. The sample volume is then adjusted to a final volume of 100 μl with 1× PBS. Two concentrations of each modulator typically are tested: 100 μM and 10 μM, equivalent to a 1:1 and a 1:10 molar ratio of monomer to modulator. The controls include an unseeded reaction to confirm that the fresh monomer contains no seed, and a seeded reaction in the absence of any modulators, as a reference to compare against candidate modulators. The assay is incubated at 37° C. for 6 h, taking 2 μl samples hourly for fluorescence measurements. To measure fluorescence, a 2 μl sample of Aβ is added to 400 μl of Thioflavin-T solution (50 mM Potassium Phosphate […] pH 7.5). The samples are vortexed and the fluorescence is read in a 0.5 ml micro quartz cuvette at EX 450 nm and EM 482 nm (Hitachi 4500 Fluorimeter).
The modulators were evaluated in the nucleation and seeded extension assays described in Example 6 and the results are summarized below in Table V. The change in lag time (ΔLag) is presented as the ratio of the lag time observed in the presence of the test compound to the lag time of the control. […] Inhibition (% Inucl'n) is listed as the percent reduction in the maximum observed turbidity in the control at the end of the assay time period. […]

Compound	% Inhibition of Plateau (Aβ1-40 [1])	inhibition at 33 % (Aβ1-40 [2]) [%]	inhibition at 100 % (Aβ1-40 [2]) [%]	% Iext'n (percent reduction of thioflavin-T fluorescence) (Aβ1-40 [3]) [%]
CC(C)C[C@H](NC(=O)[C@H](CCCCN)NC(=O)[C@H](CCC(N)=O)NC(=O)[C@H](Cc1c[nH]cn1)NC(=O)CC[C@@H](C)[C@H]1CC[C@H]2[C@@H]3[C@H](O)C[C@@H]4C[C@H](O)CC[C@]4(C)[C@H]3C[C@H](O)[C@]12C)C(=O)N[C@H](C(=O)N[C@@H](Cc1ccccc1)C(=O)N[C@@H](Cc1ccccc1)C(=O)O)C(C)C [PPI-348] (Cholyl-HQKLVFF-OH)	49%	70		
CC(C)C[C@H](NC(=O)[C@H](CCCCN)NC(=O)[C@H](CCC(N)=O)NC(=O)CC[C@@H](C)[C@H]1CC[C@H]2[C@@H]3[C@H](O)C[C@@H]4C[C@H](O)CC[C@]4(C)[C@H]3C[C@H](O)[C@]12C)C(=O)N[C@H](C(=O)N[C@@H](Cc1ccccc1)C(=O)N[C@@H](Cc1ccccc1)C(=O)O)C(C)C [PPI-349, cholyl-Aβ15-20]			100	56
CC(C)C[C@H](NC(=O)[C@H](CCCCN)NC(=O)CC[C@@H](C)[C@H]1CC[C@H]2[C@@H]3[C@H](O)C[C@@H]4C[C@H](O)CC[C@]4(C)[C@H]3C[C@H](O)[C@]12C)C(=O)N[C@H](C(=O)N[C@@H](Cc1ccccc1)C(=O)N[C@@H](Cc1ccccc1)C(=O)O)C(C)C [PPI-350, cholyl-Aβ16-20]				11
CC(C)C[C@H](NC(=O)[C@H](CCCCN)NC(=O)CC[C@@H](C)[C@H]1CC[C@H]2[C@@H]3[C@H](O)C[C@@H]4C[C@H](O)CC[C@]4(C)[C@H]3C[C@H](O)[C@]12C)C(=O)N[C@H](C(=O)N[C@@H](Cc1ccccc1)C(=O)N[C@@H](Cc1ccccc1)C(=O)O)[C@@H](C)O [PPI-369] (Cholyl-KLTFF-OH)	~ 0%			44
CC(C)C[C@H](NC(=O)[C@H](CCCCN)NC(=O)CC[C@@H](C)[C@H]1CC[C@H]2[C@@H]3[C@H](O)C[C@@H]4C[C@H](O)CC[C@]4(C)[C@H]3C[C@H](O)[C@]12C)C(=O)N[C@H](C(=O)N[C@@H](C)C(=O)N[C@@H](Cc1ccccc1)C(=O)O)C(C)C [PPI-370, cholyl-Aβ16-20 Phe19- >Ala] (Cholyl-KLVAF-OH)	73%			31
CC(C)C[C@H](NC(=O)[C@H](CCCCN)NC(=O)CC[C@@H](C)[C@H]1CC[C@H]2[C@@H]3[C@H](O)C[C@@H]4C[C@H](O)CC[C@]4(C)[C@H]3C[C@H](O)[C@]12C)C(=O)N[C@H](C(=O)N[C@@H](Cc1ccccc1)C(=O)N[C@@H](Cc1ccccc1)C(=O)NCCC(=O)O)C(C)C [PPI-371] (Cholyl-KLVFF[βAla]-OH)			76	80
CC(C)C[C@H](NC(=O)[C@@H](NC(=O)[C@H](Cc1ccccc1)NC(=O)[C@H](CCCCN)NC(=O)[C@H](Cc1ccccc1)NC(=O)CC[C@@H](C)[C@H]1CC[C@H]2[C@@H]3[C@H](O)C[C@@H]4C[C@H](O)CC[C@]4(C)[C@H]3C[C@H](O)[C@]12C)C(C)C)C(=O)O [PPI-372] (Cholyl-FKFVL-OH)			45	37
CC(=O)N[C@H]1[C@H]([C@H](O)[C@H](O)CO)OC(O)(C(=O)N[C@@H](CCCCN)C(=O)N[C@@H](CC(C)C)C(=O)N[C@H](C(=O)N[C@@H](Cc2ccccc2)C(=O)N[C@@H](Cc2ccccc2)C(=O)O)C(C)C)C[C@@H]1O (stereo partly drawn) [PPI-373] (Ac-[X2]KLVFF-OH)			16	8
CC(C)C[C@H](NC(=O)[C@H](CCCCN)NC(=O)CCCC[C@@H]1SC[C@@H]2NC(=N)N[C@@H]21)C(=O)N[C@H](C(=O)N[C@@H](Cc1ccccc1)C(=O)N[C@@H](Cc1ccccc1)C(=O)O)C(C)C [PPI-374, iminobiotinyl-Aβ16-20]	86%			0
COC(=O)[C@H](C)NC(=O)[C@H](Cc1ccccc1)NC(=O)[C@H](Cc1ccccc1)NC(=O)[C@@H](NC(=O)[C@H](CC(C)C)NC(=O)CC[C@@H](C)[C@H]1CC[C@H]2[C@@H]3[C@H](O)C[C@@H]4C[C@H](O)CC[C@]4(C)[C@H]3C[C@H](O)[C@]12C)C(C)C [PPI-401]				0
